# Measurements reported in publication PMC8142146 (Bioorganic chemistry, 2020).
# Columns and labels:
# Experiment in all cases: PARP-isoform screening, Chemiluminescent Activity Assay Kit
# Type in all cases: biochemical
# TNKS1 (PARP5A) = molecular target: T1, TNKS1 (PARP5A) (Homo sapiens, UniProt O95271); details: Figure 5
# T1 sequence (O95271 1-1327): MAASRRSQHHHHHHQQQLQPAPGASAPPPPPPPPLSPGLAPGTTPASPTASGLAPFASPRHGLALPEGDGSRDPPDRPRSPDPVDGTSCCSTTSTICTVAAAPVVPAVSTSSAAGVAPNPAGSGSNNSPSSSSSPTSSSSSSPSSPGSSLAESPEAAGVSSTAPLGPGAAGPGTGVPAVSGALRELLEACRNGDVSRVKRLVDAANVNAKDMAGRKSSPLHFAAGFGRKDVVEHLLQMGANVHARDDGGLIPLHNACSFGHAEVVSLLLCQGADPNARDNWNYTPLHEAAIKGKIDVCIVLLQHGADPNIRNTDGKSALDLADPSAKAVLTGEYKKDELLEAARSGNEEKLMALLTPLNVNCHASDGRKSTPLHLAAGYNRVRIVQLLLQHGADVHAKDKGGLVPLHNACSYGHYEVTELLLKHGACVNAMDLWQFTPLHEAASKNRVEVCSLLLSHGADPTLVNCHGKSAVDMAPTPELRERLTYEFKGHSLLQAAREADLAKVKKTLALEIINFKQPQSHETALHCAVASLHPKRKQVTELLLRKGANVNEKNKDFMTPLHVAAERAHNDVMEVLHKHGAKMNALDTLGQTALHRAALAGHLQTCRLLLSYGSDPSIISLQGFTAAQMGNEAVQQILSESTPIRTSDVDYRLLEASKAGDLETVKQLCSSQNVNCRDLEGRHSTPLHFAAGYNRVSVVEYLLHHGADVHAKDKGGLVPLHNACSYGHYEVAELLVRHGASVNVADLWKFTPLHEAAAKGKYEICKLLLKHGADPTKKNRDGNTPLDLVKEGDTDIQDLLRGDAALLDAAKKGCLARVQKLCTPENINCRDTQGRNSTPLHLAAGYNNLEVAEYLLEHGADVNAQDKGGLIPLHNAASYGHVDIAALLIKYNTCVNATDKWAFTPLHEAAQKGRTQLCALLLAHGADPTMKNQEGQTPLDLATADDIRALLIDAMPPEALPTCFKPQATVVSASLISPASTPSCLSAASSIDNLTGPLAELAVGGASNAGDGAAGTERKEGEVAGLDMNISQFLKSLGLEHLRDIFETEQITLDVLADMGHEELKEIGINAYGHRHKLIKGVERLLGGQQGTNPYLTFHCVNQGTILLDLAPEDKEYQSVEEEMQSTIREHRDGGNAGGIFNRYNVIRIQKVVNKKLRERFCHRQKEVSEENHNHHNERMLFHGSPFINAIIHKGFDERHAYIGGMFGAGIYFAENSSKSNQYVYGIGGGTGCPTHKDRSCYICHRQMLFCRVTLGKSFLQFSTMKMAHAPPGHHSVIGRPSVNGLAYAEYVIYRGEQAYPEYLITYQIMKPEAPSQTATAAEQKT
# PARP8 = molecular target: T2, PARP8 (Homo sapiens, UniProt Q8N3A8); details: Figure 5
# T2 sequence (Q8N3A8 1-854): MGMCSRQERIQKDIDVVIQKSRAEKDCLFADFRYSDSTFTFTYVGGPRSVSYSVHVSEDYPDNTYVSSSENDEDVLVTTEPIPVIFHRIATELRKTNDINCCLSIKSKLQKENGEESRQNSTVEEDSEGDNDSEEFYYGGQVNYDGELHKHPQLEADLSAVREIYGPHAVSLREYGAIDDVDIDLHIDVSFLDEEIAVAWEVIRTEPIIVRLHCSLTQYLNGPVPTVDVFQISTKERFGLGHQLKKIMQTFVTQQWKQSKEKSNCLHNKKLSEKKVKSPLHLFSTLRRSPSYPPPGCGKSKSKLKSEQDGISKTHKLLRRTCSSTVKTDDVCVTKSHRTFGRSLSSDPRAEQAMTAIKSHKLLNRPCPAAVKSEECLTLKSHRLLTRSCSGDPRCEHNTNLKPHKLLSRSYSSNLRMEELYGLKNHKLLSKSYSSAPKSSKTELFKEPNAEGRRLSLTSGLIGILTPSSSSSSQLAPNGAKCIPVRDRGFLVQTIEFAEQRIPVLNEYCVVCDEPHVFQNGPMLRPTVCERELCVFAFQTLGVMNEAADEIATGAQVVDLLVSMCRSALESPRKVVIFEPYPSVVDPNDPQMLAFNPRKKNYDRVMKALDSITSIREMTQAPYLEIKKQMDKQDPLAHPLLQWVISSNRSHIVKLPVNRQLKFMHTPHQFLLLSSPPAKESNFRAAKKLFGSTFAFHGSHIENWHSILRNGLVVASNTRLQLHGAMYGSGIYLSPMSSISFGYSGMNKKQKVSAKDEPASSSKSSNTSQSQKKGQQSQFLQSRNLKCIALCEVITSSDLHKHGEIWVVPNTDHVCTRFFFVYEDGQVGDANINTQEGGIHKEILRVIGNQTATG
# PARP2 = PARP2 (Homo sapiens, UniProt Q9UGN5); details: at 0.5 μM concentration
# Sequence of PARP2 (Q9UGN5 whole entry): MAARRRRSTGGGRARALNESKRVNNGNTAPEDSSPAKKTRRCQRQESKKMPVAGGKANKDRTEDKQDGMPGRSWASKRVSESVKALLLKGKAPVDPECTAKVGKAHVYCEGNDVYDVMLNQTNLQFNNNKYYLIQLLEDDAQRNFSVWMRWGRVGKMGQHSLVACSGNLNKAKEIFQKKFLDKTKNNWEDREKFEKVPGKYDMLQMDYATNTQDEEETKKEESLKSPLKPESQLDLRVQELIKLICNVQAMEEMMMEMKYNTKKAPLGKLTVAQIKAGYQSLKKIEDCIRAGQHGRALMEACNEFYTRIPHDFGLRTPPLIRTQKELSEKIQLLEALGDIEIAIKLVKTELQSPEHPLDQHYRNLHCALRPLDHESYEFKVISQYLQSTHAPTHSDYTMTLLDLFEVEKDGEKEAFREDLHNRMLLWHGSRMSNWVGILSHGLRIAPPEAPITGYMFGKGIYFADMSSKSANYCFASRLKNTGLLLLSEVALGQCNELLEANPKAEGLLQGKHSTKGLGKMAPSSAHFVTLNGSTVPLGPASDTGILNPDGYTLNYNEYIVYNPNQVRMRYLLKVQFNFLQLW
structure (smiles),measurement,setting,value
"NC(=O)c1cccc2c1O/C(=C\c1ccc(O)cc1)C(=O)N2 [Compound 49, (Z)-2-(4-Hydroxybenzylidene)-3-oxo-3,4-dihydro-2H-benzo[b][1,4]oxazine-8-carboxamide]",TNKS1 inhibition,TNKS1 (PARP5A),substantially inhibited
same,PARP8 inhibition,PARP8,did not interfere
same,PARP2 inhibition,PARP2,complete inhibition
